Patent US10010547B2 (CASCADIAN THERAPEUTICS, INC., priority 2014, dated 2018)
Structures can show the parent of a compound that is named as a salt. Where two headings read alike, the source gives them in different places.

Tests used:
[1] = molecular target: Chk-1 kinase (Homo sapiens (Human), UniProt O14757); test: Chk-1 Kinase Inhibiting Activity (33P-ATP filter assay, CHKtide substrate); format: biochemical
Description: Chk-1 Kinase Inhibiting Activity
The compounds of the invention were tested for activity against Chk-1 kinase using the materials and protocols set out below.
Base Reaction buffer: 20 mM Hepes (pH 7.5), 10 mM MgCl2, 1 mM EGTA, 0.02% Brij35, 0.02 mg/ml BSA, 0.1 mM Na3VO4, 2 mM DTT, 1% DMSO
*Required cofactors are added individually to each kinase reaction
(i) Prepare indicated substrate in freshly prepared Base Reaction Buffer
(ii) Deliver any required cofactors to the substrate solution above
(iii) Deliver indicated kinase into the substrate solution and gently mix
(iv) Deliver compounds in DMSO into the kinase reaction mixture
(v) Deliver ^33P-ATP (specific activity 0.01 μCi/μl final) into the reaction mixture to initiate the reaction.
(vi) Incubate kinase reaction for 120 minutes at room temperature
(vii) Reactions are spotted onto P81 ion exchange paper (Whatman #3698-915)
(viii) Wash filters extensively in 0.1% phosphoric acid.
(ix) Dry filters and measure counts in scintillation counter
Recombinant full length construct, N-terminal GST tagged, purified from insect cells.
No special measures were taken to activate this kinase.
Final concentration in assay=0.5 nM
Peptide sequence: [[…]]
Final concentration in assay=20 μM
No additional cofactors are added to the reaction mixture
From the results obtained by following the above protocol, the IC50 values against Chk-1 kinase of each of the compounds of Examples 1-153 were determined and these are shown in Table 3.

[2] = system: MIA PaCa-2 cells; test: Gemcitabine Combination Cell Assay (Cell Titer Glo); format: cell-based; details: for 10xLS: approximate concentration of Chk1 inhibitor that results in a 10-fold reduction in the IC50 of gemcitabine alone; for 2xLS: approximate concentration of Chk1 inhibitor that results in a two-fold reduction in the IC50 of gemcitabine alone
Description: Gemcitabine Combination Cell Assay
Exponentially growing MIA PaCa-2 (ATCC CRL-1420) cells are treated with trypsin to remove cells from the plate surface. Approximately 10,000 cells/well are plated in 96 well plates in RPMI containing 10% fetal bovine serum, 1% sodium pyruvate and 1% L-GlutaMax. Cells are allowed to adhere to the plate surface overnight. Serial half-log dilutions of Chk1 inhibitor test compounds and gemcitabine are made with a final highest concentration of 3000 nM and 100 nM, respectively. Chk1 inhibitors and gemcitabine are combined so that each concentration of Chk1 inhibitor is added to each concentration of gemcitabine. Each drug is also tested as a single agent. Drugs are added to adherent cells (in duplicate) and incubated for 72 h. At 72 h the cells are treated with Promega Cell Titer Glo reagent for approximately 15 minutes. Luminescence (relative light units, RLU) is recorded using a BMG Polarstar Omega plate reader. The single agent concentration that results in a 50% reduction in total signal (IC50) is calculated using PRISM software and a four-parameter non-linear regression curve fit. For combination studies the RLUs are plotted using PRISM on an XY plot with the gemcitabine concentration on the X axis and RLU on the Y axis. The RLU for each concentration of Chk1 inhibitor is plotted as a function of gemcitabine concentration. The IC50 for gemcitabine alone and at each concentration of Chk1 is determined using a four-parameter non-linear regression curve fit. The approximate concentration of Chk1 inhibitor that results in a two and ten-fold reduction in the IC50 of gemcitabine alone is calculated as an indication of synergistic potency.
From the results obtained by following the above protocol, the IC50 values against MIAPaca-2 cells of the Chk1 inhibitor alone (Chk1 IC50), the approximate concentration of Chk1 inhibitor that results in a two-fold (2×LS) and a 10-fold (10×LS) reduction in the IC50 of gemcitabine alone of each of the compounds of Examples 1-154 are shown in Table 4.

[3] = Homo sapiens, Chk1 inhibitor alone, MIA PaCa-2 cells, 72 h, read-out: Chk1 IC50
[4] = against Chk-1 kinase, read-out: IC50
[5] = Homo sapiens, MIA PaCa-2, 72 h, read-out: Chk1 IC50 (nM)

Chk-1 kinase, sequence (O14757 whole entry): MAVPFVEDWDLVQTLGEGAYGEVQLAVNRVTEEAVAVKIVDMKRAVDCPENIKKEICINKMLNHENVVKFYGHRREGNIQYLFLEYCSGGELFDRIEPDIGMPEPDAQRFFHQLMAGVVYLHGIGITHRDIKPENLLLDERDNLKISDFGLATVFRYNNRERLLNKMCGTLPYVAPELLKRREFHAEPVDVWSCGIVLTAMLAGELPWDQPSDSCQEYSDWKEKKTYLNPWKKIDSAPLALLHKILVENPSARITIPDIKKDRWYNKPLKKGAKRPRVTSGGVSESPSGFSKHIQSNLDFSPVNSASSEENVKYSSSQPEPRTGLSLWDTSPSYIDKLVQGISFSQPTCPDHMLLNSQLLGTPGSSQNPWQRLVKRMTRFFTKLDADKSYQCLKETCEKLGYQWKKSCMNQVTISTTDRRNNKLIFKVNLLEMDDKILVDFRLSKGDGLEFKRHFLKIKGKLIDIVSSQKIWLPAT

IC50 [2, 3] [nM] | IC50 [1, 4] [nM] | SMILES | IC50 [1] [nM] | 10xLS ([2]; MIA PaCa-2 cells, 72 h) [nM] | 2xLS ([2]; MIA PaCa-2 cells, 72 h) [nM] | IC50 [2, 5] [nM] | IC50 ([2]; Chk1 inhibitor alone, MIA PaCa-2 cells, 72 h, read-out: Chk1 IC50) [nM]
136 | 0.14 | COc1cc(N2CCN(C)CC2)cc(OC)c1-c1cc(Nc2cnc(C#N)cn2)n[nH]1 [Example 122, 5-[[5-[2,6-dimethoxy-4-(4-methylpiperazin-1-yl)phenyl]-1H-pyrazol-3-yl]amino]pyrazine-2-carbonitrile] |  | <100 | 3 |  | 
1780 | 1.8 | CCN1CCC(c2ccc(-c3cc(Nc4cnc(C#N)cn4)n[nH]3)c(OC)c2)C(F)(F)C1 (centres unmarked) [Example 98, 5-[[5-[4-(1-ethyl-3,3-difluoro-4-piperidyl)-2-methoxy-phenyl]-1H-pyrazol-3-yl]amino]pyrazine-2-carbonitrile] |  | <1000 | 10 |  | 
424 | 0.079 | COc1cc(C2CCN(C(C)C)CC2F)ccc1-c1cc(Nc2cnc(C#N)cn2)n[nH]1 (centres unmarked) [Example 88, 5-[[5-[4-(3-fluoro-1-isopropyl-4-piperidyl)-2-methoxy-phenyl]-1H-pyrazol-3-yl]amino]pyrazine-2-carbonitrile] |  | 300 | 10 |  | 
142 | 0.025 | COc1cc(CNCC2CC2)ccc1-c1cc(Nc2cnc(C#N)cn2)n[nH]1 [Example 130, 5-[[5-[4-[(cyclopropylmethylamino)methyl]-2-methoxy-phenyl]-1H-pyrazol-3-yl]amino]pyrazine-2-carbonitrile] |  | <100 | 3 |  | 
> 3000 | 0.55 | COc1cc(OCC2CCOCC2)ccc1-c1cc(Nc2cnc(C#N)cn2)n[nH]1 [Example 75, 5-[[5-[2-methoxy-4-(tetrahydropyran-4-ylmethoxy)phenyl]-1H-pyrazol-3-yl]amino]pyrazine-2-carbonitrile] |  | >3000 | >3000 |  | 
475 | 0.18 | COc1cc(O[C@H]2CCN(C(C)C)C2)ccc1-c1cc(Nc2cnc(C#N)cn2)n[nH]1 [Example 94, 5-[[5-[4-[(3S)-1-isopropylpyrrolidin-3-yl]oxy-2-methoxy-phenyl]-1H-pyrazol-3-yl]amino]pyrazine-2-carbonitrile] |  | 100 | 3 |  | 
2210 | 0.3 | COc1cc(CN(C)CCN2CCOCC2)ccc1-c1cc(Nc2cnc(C#N)cn2)n[nH]1 [Example 15, 5-[[5-[2-methoxy-4-[[methyl(2-morpholinoethyl)amino]methyl]phenyl]-1H-pyrazol-3-yl]amino]pyrazine-2-carbonitrile] |  | ~3000 | ~5 |  | 
2020 | 1.5 | COc1cc(C2CCOCC2)ccc1-c1cc(Nc2cnc(C#N)cn2)n[nH]1 [Example 48, 5-[[5-(2-methoxy-4-tetrahydropyran-4-yl-phenyl)-1H-pyrazol-3-yl]amino]pyrazine-2-carbonitrile] |  | 1000 | 100 |  | 
> 3000 | 227 | COc1cc(C2CCNCC2)ccc1-c1cc(Nc2cnc(C)cn2)n[nH]1 [Example 55, N-[5-[2-methoxy-4-(4-piperidyl)phenyl]-1H-pyrazol-3-yl]-5-methyl-pyrazin-2-amine] |  | >3000 | 1000 |  | 
264 | 0.034 | COc1cc(CNCC2CCN(C(=O)C3CC3)CC2)ccc1-c1cc(Nc2cnc(C#N)cn2)n[nH]1 [Example 12, 5-[5-(4-{[(1-cyclopropane-carbonyl-piperidin-4-ylmethyl)-amino]-methyl}-2-methoxy-phenyl)-1 H-pyrazol-3-ylamino]-pyrazine-2-carbonitrile] |  | ~50 | <3 |  | 
411 | 0.11 | COc1cc(CN[C@H]2CCOC2)ccc1-c1cc(Nc2cnc(C#N)cn2)n[nH]1 [Example 132, 5-[[5-[2-methoxy-4-[[[(3S)-tetrahydrofuran-3-yl]amino]methyl]phenyl]-1H-pyrazol-3-yl]amino]pyrazine-2-carbonitrile] |  | <300 | 3 |  | 
> 3000 | 17 | COc1cc(C2CCN(C)CC2)ccc1-c1cc(Nc2ccc(C#N)c(F)c2)n[nH]1 [Example 30, 2-fluoro-4-[[5-[2-methoxy-4-(1-methyl-4-piperidyl)phenyl]-1H-pyrazol-3-yl]amino]benzonitrile] |  | >3000 | 1000 |  | 
36 | 0.19 | CCN1CCN(c2ccc(-c3cc(Nc4cnc(C#N)cn4)n[nH]3)c(OC)c2)CC1 [Example 80, 5-[[5-[4-(4-ethylpiperazin-1-yl)-2-methoxy-phenyl]-1H-pyrazol-3-yl]amino]pyrazine-2-carbonitrile] |  | 10 | <3 |  | 
478 | 0.4 | COc1cc(N2CCOCC2)ccc1-c1cc(Nc2cnc(C#N)cn2)n[nH]1 [Example 79, 5-[[5-(2-methoxy-4-morpholino-phenyl)-1H-pyrazol-3-yl]amino]pyrazine-2-carbonitrile] |  | 100 | 3 |  | 
> 3000 | 183 | N#Cc1cnc(Nc2cc(-c3ccc(C4CCNCC4)cc3)[nH]n2)cn1 [Example 56, 5-[[5-[4-(4-piperidyl)phenyl]-1H-pyrazol-3-yl]amino]pyrazine-2-carbonitrile] |  | >3000 | 1000 |  | 

SMILES | IC50 [2, 3] [nM] | IC50 [1, 4] [nM] | IC50 [1] [nM] | 10xLS ([2]; MIA PaCa-2 cells, 72 h) [nM] | 2xLS ([2]; MIA PaCa-2 cells, 72 h) [nM] | IC50 [2, 5] [nM] | IC50 ([2]; Chk1 inhibitor alone, MIA PaCa-2 cells, 72 h, read-out: Chk1 IC50) [nM]
COc1cc([C@H]2CCN(C)C[C@@H]2F)ccc1-c1cc(Nc2cnc(C#N)cn2)n[nH]1 [Example 96, 5-[[5-[4-[(3(R,S),4(R,S))-3-fluoro-1-methyl-4-piperidyl]-2-methoxy-phenyl]-1H-pyrazol-3-yl]amino]pyrazine-2-carbonitrile] | 730 |  | 0.4 | <300 | 10 |  | 
COc1cc([C@@H]2CN(C)CCO2)ccc1-c1cc(Nc2cnc(C#N)cn2)n[nH]1 [Example 117, 5-[[5-[2-Methoxy-4-[(2R)-4-methylmorpholin-2-yl]phenyl]-1H-pyrazol-3-yl]amino]pyrazine-2-carbonitrile hydrochloride] |  | 0.027 |  | 1000 | 10 | 1890 | 
COc1cc(COC2CCN(C)CC2)ccc1-c1cc(Nc2cnc(C#N)cn2)n[nH]1 [Example 113, 5-[[5-[2-methoxy-4-[(1-methyl-4-piperidyl)oxymethyl]phenyl]-1H-pyrazol-3-yl]amino]pyrazine-2-carbonitrile] |  | 0.27 |  | 300 | 3 |  | 531
COc1cc(OC[C@@H]2CCCN2C)ccc1-c1cc(Nc2cnc(C#N)cn2)n[nH]1 [Example 104, 5-[[5-[2-methoxy-4-[[(2S)-1-methylpyrrolidin-2-yl]methoxy]phenyl]-1H-pyrazol-3-yl]amino]pyrazine-2-carbonitrile hydrochloride] |  | 0.12 |  | 100 | 3 | 214 | 
N#Cc1cnc(Nc2cc(-c3ccc(N4CCNCC4)cc3OC(F)(F)F)[nH]n2)cn1 [Example 153] | 1200 |  | 3.8 | 1000 | 100 |  | 
